Measured values as given in patent publication US20220096410A1, “PHARMACEUTICAL COMPOSITION FOR INTRAOCULAR OR ORAL ADMINISTRATION FOR TREATMENT OF RETINAL DISEASES” (FUSO PHARMACEUTICAL INDUSTRIES, LTD., priority 2019, published 2022).

Assays:
Format in all cases: in vivo, BALB/c mice
mRNA of the complement = test: Activity evaluation test of complement (real-time PCR of retina, AMD model mice); details: oral, 1 mL/kg of 50 μM, pathological group of mice
Protocol: Specifically, to 9 week olds of BALB/c mice, 1 mL/kg of 50 μM test compounds dissolved in PBS containing 10% polyethylene glycol (PEG) 300 was orally administered. A PBS solution containing 10% polyethylene glycol (PEG) 300 was used as a control. Thirty (30) minutes later, one drop of Midrin P (5 mg/mL tropicamide, 5 mg/mL phenylephrine hydrochloride; Santen Pharmaceutical Co., Ltd.) as a mydriatic drug was applied to both eyes by one drop per one eye. The mice were irradiated with 8000 lux white light for 10 hours, then returned to under normal light and dark cycles, and raised for the desirable observation periods. After the observation periods, the animal was euthanized by cervical dislocation, and the retina were removed.
For the removed retina, RNA was extracted by using ISOSPIN Cell & Tissue RNA (manufactured by Nippon Gene Co. Ltd), and cDNA was then synthesized by using ReverTra Ace™ qPCR RT master Mix (manufactured by Toyobo Co. Ltd). The obtained cDNA was diluted with sterile water to 0.5 ng/μL, and a real-time PCR was carried out with THUNDERBIRD™ SYBR™ qPCR Mix (manufactured by Toyobo Co. Ltd). All of the test results were corrected by Gapdh mRNA amounts, and a relative quantification was carried. […]

[1] = tested on: light irradiation model (atrophic AMD model mouse); test: Pharmacological test against AMD, light-induced AMD model mice, administration by eye drop, ONL thickness; details: 50 μL per one eye
Protocol: A test was performed using a light irradiation model, which is widely employed as an atrophic AMD model mouse, as a test model.
(§1) Male BALB/c mice (4 weeks old) were purchased from Japan SLC, Inc., and allowed to acclimate for a week before being used for experiments. Laboratory animal chow (CLEA Rodent Diet CE-2, CREA JAPAN, INC.) was used as food, and tap water was freely consumed as drinking water. The animals were raised under light and dark cycles of every 12 hours. Also all animal experiments were conducted under the approval of the Kyushu University Animal Experiment Committee.
To BALB/c mice, Midrin P (5 mg/mL tropicamide, 5 mg/mL phenylephrine hydrochloride; Santen Pharmaceutical Co., Ltd.) as a mydriatic drug was applied to both eyes by one drop per one eye, and after 10 minutes, 0.45%, 0.75% or 1% of methyldopa that was dissolved in PBS containing 10% polyethylene glycol (PEG) 300 was administered with eye drop in 50 μL of the compound per one eye. Thereafter, the mice were irradiated with 8000 lux white light for 10 hours, then returned to under normal light and dark cycles, and raised for 6 days. On day 7, the animal was euthanized by cervical dislocation, and the eyeballs were removed.
Frozen sections of 8 μm thickness were prepared by using the above-mentioned removed eyeballs, and subjected to hematoxylin eosin (HE) staining, and the thickness of the outer nuclear layer (ONL) was measured over 27 points every 180 μm (observation magnification: 40 times).
The preparation was air-dried for 1 hour, fixed with acetone at room temperature for 15 minutes, then immersed in 99.5% EtOH, 80% EtOH, 70% EtOH, and purified water in this order for 3 minutes each, and stained with hematoxylin for 10 minutes. Then, it was washed with running water for 10 minutes, soaked in warm water for 1 minute, and stained with eosin for 1.5 minutes. […] The resultant was subjected to observation and imaging with Keyence fluorescence microscope (BZ-9000).
Results were expressed as mean+standard deviation. […]

[2] = tested on: mRNA of microglia marker protein; test: Activity evaluation test of microglia (real-time PCR of retina, AMD model mice); details: oral, 1 mL/kg of 50 μM, pathological group of mice
[3] = tested on: light irradiation model (atrophic AMD model mouse); test: Pharmacological test against AMD, light-induced AMD model mice, oral administration, ONL thickness
Protocol: A test was performed using a light irradiation model, which is widely employed as an atrophic AMD model mouse, as a test model. Male BALB/c mice (4 weeks old) were purchased from Japan SLC, Inc., and allowed to acclimate for a week before being used for experiments. Laboratory animal chow (CLEA Rodent Diet CE-2, CREA JAPAN, INC.) was used as food, and tap water was freely consumed as drinking water. The animals were raised under light and dark cycles of every 12 hours. Also all animal experiments were conducted under the approval of the Kyushu University Animal Experiment Committee. To BALB/c mice, 1 mL/kg of 50 μM compound dissolved in PBS containing 10% polyethylene glycol (PEG) 300 was orally administered. Thirty (30) minutes later, one drop of […] (5 mg/mL tropicamide, 5 mg/mL phenylephrine hydrochloride; Santen Pharmaceutical Co., Ltd.) was applied to each eye as a mydriatic drug. The mice were irradiated with 8000 lux white light for 10 hours, then returned to under normal light and dark cycles, and raised for 6 days. On day 7, the animal was euthanized by cervical dislocation, and the eyeballs were removed (FIG. 1A). Frozen sections of 8 μm thickness were prepared by using the above-mentioned removed eyeballs, and subjected to hematoxylin eosin (HE) staining, and the thickness of the outer nuclear layer (ONL) was measured over 27 points every 180 μm (observation magnification: 60 times) (FIG. 1B). The preparation was air-dried for 1 hour, fixed with acetone at room temperature for 15 minutes, then immersed in 99.5% EtOH, 80% EtOH, 70% EtOH, and purified water in this order for 3 minutes each, and stained with hematoxylin for 10 minutes. Then, it was washed with running water for 10 minutes, soaked in warm water for 1 minute, and stained with eosin for 1.5 minutes. After washing with purified water, it was immersed in 70% EtOH, 80% EtOH, and 99.5% EtOH in this order for 3 minutes each, then washed with xylene three times, dried, and then enclosed with VectaMountTM Mounting Medium. The resultant was subjected to observation and imaging with Keyence fluorescence microscope (BZ-9000). Results were expressed as mean+standard deviation. Dunnett's Test was used for multigroup comparison.

[4] = tested on: mRNA of Muller cell marker protein; test: Activity evaluation test of Muller cell (real-time PCR of retina, AMD model mice); details: oral, 1 mL/kg of 50 μM, pathological group of mice
Excerpt: For age-related macular degeneration (AMD), the suppression activity of the test compounds against the expression amount of mRNA of a marker protein, which is used as an indicator of activity of Muller cell and is increased as a pathology is deteriorated, was examined. The present compound as test compound was methyldopa (Compound Y).
as §1
A method for producing age-related macular degeneration (AMD) model mice (production schedule) was prepared according to the method described in Test Example 2 (FIG. 3). […]
For the removed retina, RNA was extracted by using ISOSPIN Cell & Tissue RNA (manufactured by Nippon Gene Co. Ltd), and cDNA was then synthesized by using ReverTra Ace™ qPCR RT master Mix (manufactured by Toyobo Co. Ltd). […] All of the test results were corrected by Gapdh mRNA amounts, and a relative quantification was carried.

[5] = 50 μmol/kg, 8000 lux white light 10 hours, day 7

SMILES	expression amounts of mRNA in the complement (mRNA of the complement)	ONL thickness compared to light irradiation case ([1]; eye drop 0.45%)	ONL thickness compared to light irradiation case ([1]; eye drop 0.75%)	ONL thickness compared to light irradiation case ([1]; eye drop 1%)	expression amounts of mRNA in microglia marker protein [2]	ONL thickness compared to positive control ([3]; 100 μmol/kg)	ONL thickness compared to positive control ([3]; 200 μmol/kg)	expression amounts of mRNA in Muller cell marker protein [4]	ONL thickness compared to positive control [3, 5]
C[C@](N)(Cc1ccc(O)c(O)c1)C(=O)O [methyldopa, Methyldopa Sesquihydrates]	suppress significantly	significant thickness compared to that of the light irradiation case	significant thickness compared to that of the light irradiation case	significant thickness compared to that of the light irradiation case	suppress significantly	didn't have significant difference compared to that of the positive control	didn't have significant difference compared to that of the positive control	suppress significantly	–
CC1Cc2ccccc2N1NC(=O)c1ccc(Cl)c(S(N)(=O)=O)c1 (racemic) [indapamide, 4-Chloro-N-[(2RS)-2-methyl-2,3-dihydro-1H-indol-1-yl]-3-sulfamoyl Benzamide]	–	–	–	–	–	–	–	–	not different so much compared to that of the positive control
CCOc1ccc2c(c1)C(C)=CC(C)(C)N2 [ethoxyquin, 6-Ethoxy-2,2,4-trimethyl-1,2-dihydroquinoline]	–	–	–	–	–	–	–	–	not different so much compared to that of the positive control
